A word on the IC50: it is the concentration at which inhibition is half-maximal. A lower IC50 goes with greater potency.

This assay deals with Jurkat IL-2 Production. Put plainly: Jurkat IL-2 Production Assay. In kind it is cell-based. Particulars: Homo sapiens, Jurkat cell (ATCC), 18-20 h incubation, PHA 5 μg/mL with 1% FBS, or PMA/Ionomycin with 30% FBS (table does not say which). The method, boiled down: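 Jurkat cells were exposed to compound (0.25% DMSO final) for 10 min, then stimulated for 18–20 h at 37 °C. The 1% FBS condition used 5 μg/mL PHA; the high-serum condition (30% FBS) used 50 ng/mL PMA plus 500 ng/mL ionomycin. IC50 was derived from IL-2 production.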
In the case of `CCn1nc(C(F)(F)F)cc1-c1ccc2[nH]c(C3CCCCC3)cc2c1` [Example 196, 2-cyclohexyl-5-(1-ethyl-3-(trifluoromethyl)-1H-pyrazol-5-yl)-1H-indole], the half-inhibitory concentration (IC50) worked out at 24 nM.

Compound `CCn1nc(C(F)(F)F)cc1-c1ccc2c(c1)CC(C1CCCCC1)N2` (stereo not shown) [Example 197] came in with an IC50 of 110 nM.

For the compound `CCn1nc(C(F)(F)F)cc1-c1ccc2[nH]c(C3CCOCC3)cc2c1` [Example 198, 5-(1-ethyl-3-(trifluoromethyl)-1H-pyrazol-5-yl)-2-(tetrahydro-2H-pyran-4-yl)-1H-indole], the IC50 was determined as 95 nM.

With `CCn1nc(C(F)(F)F)cc1-c1ccc2[nH]c(C3CCCOC3)cc2c1` (stereo not shown) [Example 199, 5-(1-ethyl-3-(trifluoromethyl)-1H-pyrazol-5-yl)-2-(tetrahydro-2H-pyran-3-yl)-1H-indole], the IC50 came out at 86 nM.

As to `CCn1nc(C(F)(F)F)cc1-c1ccc2[nH]c(C3CCN(C(C)=O)CC3)cc2c1` [Example 200, 1-(4-(5-(1-ethyl-3-(trifluoromethyl)-1H-pyrazol-5-yl)-1H-indol-2-yl)piperidin-1-yl)ethanone], the IC50 was determined as 220 nM.

The compound `COc1cc(F)c(-c2cc3cc(-c4cc(C(F)(F)F)nn4C)ccc3[nH]2)c(Cl)c1` [Example 201, 2-(2-chloro-6-fluoro-4-methoxyphenyl)-5-(1-methyl-3-(trifluoromethyl)-1H-pyrazol-5-yl)-1H-indole] registered an IC50 of 35 nM.

Consider `COc1cc(F)c(-c2cc3cc(-c4ccc(C#N)cc4C)ccc3[nH]2)c(Cl)c1` [Example 202, 4-(2-(2-chloro-6-fluoro-4-methoxyphenyl)-1H-indol-5-yl)-3-methylbenzonitrile], for which it took 57 nM to reach half-maximal inhibition (IC50).

Regarding `CCn1nc(C(F)(F)F)cc1-c1ccc2[nH]c(-c3c(F)cc(OC)cc3Cl)cc2c1` [Example 203, 2-(2-chloro-6-fluoro-4-methoxyphenyl)-5-(1-ethyl-3-(trifluoromethyl)-1H-pyrazol-5-yl)-1H-indole], the IC50 turned out to be 31 nM.

`CCn1nc(-c2cnccn2)cc1-c1ccc2[nH]c(-c3c(F)cccc3F)cc2c1` [Example 204, 2-(2,6-difluorophenyl)-5-(1-ethyl-3-(pyrazin-2-yl)-1H-pyrazol-5-yl)-1H-indole] had an IC50 of 63 nM.

On to `CCn1nc(-c2cccnc2)nc1-c1ccc2[nH]c(-c3c(F)cccc3F)cc2c1` [Example 205, 2-(2,6-Difluoro-phenyl)-5-(2-ethyl-5-pyridin-3-yl-2H-[1,2,4]triazol-3-yl)-1H-indole], for which 24 nM corresponded to half-maximal inhibition (IC50). Against the preceding compound, the IC50 is about 2.6-fold lower.

`Cc1sc(-c2cnccn2)nc1-c1ccc2[nH]c(-c3c(F)cccc3F)cc2c1` [Example 206, 2-(2,6-Difluoro-phenyl)-5-(5-methyl-2-pyrazin-2-yl-thiazol-4-yl)-1H-indole]: inhibition was half-maximal at 51 nM (IC50).

For `CCc1sc(-c2cccnc2)nc1-c1ccc2[nH]c(-c3c(F)cccc3F)cc2c1` [Example 207, 2-(2,6-Difluoro-phenyl)-5-(5-ethyl-2-pyridin-3-yl-thiazol-4-yl)-1H-indole], half-maximal inhibition (IC50) was put at 26 nM.

In the case of `Cc1cc(-c2ncco2)ncc1-c1ccc2[nH]c(-c3c(F)cccc3F)cc2c1` [Example 208, 2-(2,6-Difluoro-phenyl)-5-(4-methyl-6-oxazol-2-yl-pyridin-3-yl)-1H-indole], half-maximal inhibition (IC50) was put at 97 nM.

On to `Cc1cc(-c2cnc(N)nc2)ncc1-c1ccc2[nH]c(-c3c(F)cccc3F)cc2c1` [Example 209, 5-{5-[2-(2,6-Difluoro-phenyl)-1H-indol-5-yl]-4-methyl-pyridin-2-yl}-pyrimidin-2-ylamine], for which the IC50 was 54 nM. Compared with the last compound, the IC50 is about 1.8-fold lower.

In the case of `Cc1cc(-c2cncnc2)ncc1-c1ccc2[nH]c(-c3c(F)cccc3F)cc2c1` [Example 210, 2-(2,6-Difluoro-phenyl)-5-(4-methyl-6-pyrimidin-5-yl-pyridin-3-yl)-1H-indole], half-maximal inhibition (IC50) was put at 60 nM.

On to `CCn1nc(-c2cnccn2)cc1-c1ccc2[nH]c(-c3cnccc3C)cc2c1` [Example 211, 5-(2-Ethyl-5-pyrazin-2-yl-2H-pyrazo-1-3-yl)-2-(4-methyl-pyridin-3-yl)-1H-indole], for which half-maximal inhibition (IC50) was put at 124 nM.

For the compound `Cc1cc(C#N)ncc1-c1ccc2[nH]c(-c3cnccc3C)cc2c1` [Example 212, 4-Methyl-5-[2-(4-methyl-pyridin-3-yl)-1H-indol-5-yl]-pyridine-2-carbonitrile], it took 447 nM to reach half-maximal inhibition (IC50).

`COc1cc(C#N)ccc1-c1ccc2[nH]c(-c3cnccc3C)cc2c1` [Example 213]: the midpoint of inhibition, the IC50, lay at 105 nM.

In turn, `Cc1cc(S(C)(=O)=O)ncc1-c1ccc2[nH]c(-c3cnccc3C)cc2c1` [Example 214, 5-(6-Methanesulfonyl-4-methyl-pyridin-3-yl)-2-(4-methyl-pyridin-3-yl)1indole] returned an IC50 of 41 nM.

On to `Cc1cc(Cl)ncc1-c1ccc2[nH]c(-c3cnccc3C)cc2c1` [Example 215, 5-(6-Chloro-4-methyl-pyridin-3-yl)-2-(4-methyl-pyridin-3-yl)-1H-indole], for which half-maximal inhibition (IC50) required 235 nM. This IC50 is about 5.7-fold higher than that of the compound before.

`COc1cc(C)c(-c2ccc3[nH]c(-c4cnccc4C)cc3c2)cn1` [Example 216, 5-(6-Methoxy-4-methyl-pyridin-3-yl)-2-(4-methyl-pyridin-3-yl)-1H-indole] displayed an IC50 of 110 nM.

The compound `Cc1sc(-c2ccccn2)nc1-c1ccc2[nH]c(-c3c(Cl)cccc3Cl)cc2c1` [Example 217, 2-(2,6-Dichloro-phenyl)-5-(5-methyl-2-pyridin-2-yl-thiazol-4-yl)-1H-indole] registered an IC50 of 100 nM.

As to `Cc1cccc(C)c1-c1cc2cc(-c3nc(-c4cccnc4)sc3C)ccc2[nH]1` [Example 218, 2-(2,6-Dimethyl-phenyl)-5-(5-methyl-2-pyridin-3-yl-thiazol-4-yl)-1H-indole], inhibition was half-maximal at 110 nM (IC50).

In turn, `Cc1cccc(C)c1-c1cc2cc(-c3nc(-c4ccccn4)sc3C)ccc2[nH]1` [Example 219, 2-(2,6-Dimethyl-phenyl)-5-(5-methyl-2-pyridin-2-yl-thiazol-4-yl)-1H-indole] returned a half-inhibitory concentration (IC50) of 158 nM.

Compound `Cc1cccc(F)c1-c1cc2cc(-c3nc(-c4cccnc4)sc3C)ccc2[nH]1` [Example 220, 2-(2-Fluoro-6-methyl-phenyl)-5-(5-methyl-2-pyridin-3-yl-thiazol-4-yl)-1H-indole] showed a concentration for half-maximal inhibition (IC50) of 24 nM.

For `Cc1cccc(F)c1-c1cc2cc(-c3nc(-c4ccccn4)sc3C)ccc2[nH]1` [Example 221, 2-(2-Fluoro-6-methyl-phenyl)-5-(5-methyl-2-pyridin-2-yl-thiazol-4-yl)-1H-indole], the IC50 is 95 nM.

As to `Cn1nc(C(F)(F)F)cc1-c1ccc2[nH]c(C3CCCCC3)cc2c1` [Example 222], half-maximal inhibition (IC50) required 40 nM.

`Cc1cc(S(=O)(=O)N(C)C)ccc1-c1ccc2[nH]c(C3CCCCC3)cc2c1` [Example 223, 4-(2-cyclohexyl-1H-indol-5-yl)-N,N,3-trimethylbenzenesulfonamide]: half-maximal inhibition (IC50) was put at 54 nM.

For `COc1cc(C)c(-c2ccc3[nH]c(C4CCCCC4)cc3c2)cn1` [Example 224, 2-cyclohexyl-5-(6-methoxy-4-methylpyridin-3-yl)-1H-indole], the 50% inhibitory concentration (IC50) came to 83 nM.

On to `Cc1cc(S(=O)(=O)N(C)C)ccc1-c1ccc2[nH]c(-c3ccccc3F)c(C)c2c1` [Example 225, 4-(2-(2-fluorophenyl)-3-methyl-1H-indol-5-yl)-N,N,3-trimethylbenzenesulfonamide], for which half-maximal inhibition (IC50) required 153 nM.

`Cc1cc(S(=O)(=O)N(C)C)ccc1-c1ccc2[nH]c(-c3ccccc3)c(C)c2c1` [Example 226, N,N,3-trimethyl-4-(3-methyl-2-phenyl-1H-indol-5-yl)benzenesulfonamide] gave an IC50 of 602 nM.

Regarding `Cc1c(-c2c(F)cccc2F)[nH]c2ccc(-c3cc(C(F)(F)F)nn3C)cc12` [Example 227], it took 284 nM to reach half-maximal inhibition (IC50). This IC50 is about 2.1-fold lower than that of the compound before.

The compound `Cc1cc(S(=O)(=O)N(C)C)ccc1-c1ccc2[nH]c(-c3c(F)cccc3F)c(C)c2c1` [Example 228, 4-[2-(2,6-Difluoro-phenyl)-3-methyl-1H-indol-5-yl]-3,N,N-trimethyl-benzenesulfonamide] displayed an IC50 of 115 nM. Compared with the last compound, the IC50 is about 2.5-fold lower.

In turn, `COc1cc(C)c(-c2ccc3[nH]c(-c4c(F)cccc4F)c(C)c3c2)cn1` [Example 229, 2-(2,6-Difluoro-phenyl)-5-(6-methoxy-4-methyl-pyridin-3-yl)-3-methyl-1H-indole] displayed an IC50 of 164 nM.

Values taken from patent US20110071150A1 (priority 2009, published 2011).
